Legend:
Assay type in all cases: cell-based
[1] = Cell viability of U-937 cells (EZ4U); conditions: human, U-937 histiocytic lymphoma cells, read-out: Percentage of cell viability
Experimental: (§1) Several cell lines obtained from the American Type Culture Collection (ATCC) were cultured at 37° C. and under a 5% CO2 atmosphere. Each cell line was grown in an appropriate culture medium and within the exponential phase (Table I).
(§2) For the cell viability studies 24-well plates were used, where 0.5×10^6 cells/ml (for 24-hour studies), 0.25×10^6 cells/ml (for 48-hour studies) or 0.125×10^6 cells/ml (for 72-hour studies) were incubated. Next, different concentrations of HTB (1-3 mM) were added and cells were incubated for different time periods (37° C., 5% CO2). After incubation, the supernatant from each well was extracted, and cells were washed with culture medium without fetal calf serum. Then, the supernatant was extracted and 200 μl culture medium without fetal calf serum were added to each well. In addition, 20 μl substrate were added to determine cell viability. This method is based on the ability of viable cells to transform the colourless substrate into a coloured substance that is excreted to the supernatant (EZ4U, Biomedica Gmbh.). After incubating cells for 1 hour at 37° C. and 5% CO2, 200 μl supernatant were collected and the absorbance was measured at 450 nm.
(§3) The absorbance was also determined at 620 nm as a measure of the existing non-specific value.

[2] = Cell viability of Jurkat cells (EZ4U); conditions: human, Jurkat cells (acute T cell leukemia), read-out: Percentage of cell viability
Experimental: as §1, §2, §3

[3] = Cell viability of COLO 205 cells (EZ4U); conditions: human, COLO 205 cells (colon adenocarcinoma), read-out: Percentage of cell viability
Experimental: as §1, §2, §3

[4] = system: human peripheral blood mononuclear cells (PBMC); assay: Cell viability controls of human PBMC (MTT assay); conditions: Example 3, HTB 1-3 mM with LPS, 3 mM without LPS
Experimental: Prior to the various treatments, cell viability was determined by the Trypan Blue exclusion assay. Cells were diluted at a concentration of 2.5 million/ml with RPMI medium containing 10% fetal calf serum and were incubated (37° C., 5% CO2) 1 hour in 6-well plates (2 ml/well, 5 million PBMC) without adding any drug (control) or adding HTB (1-3 mM). Next, cells were incubated for further 10 minutes in the presence of 10 μg/ml E.coli lipopolysaccharide (LPS, 026:B6 serotype; Sigma). After incubation, a sample (100 μl) was taken in order to carry out a cell count as well as cell viability controls by measuring the ability of mitochondrial dehydrogenases to convert the soluble tetrazolium salt, MTT the insoluble product formazan (MTT assay). Cells were also incubated with HTB (3 mM) in the absence of LPS. In all cases, cell viability was equal to or higher than 95%.
Cells were diluted at a concentration of 2.5 million/ml with RPMI medium containing 10% fetal calf serum and were incubated (37° C., 5% CO2) 19 hours in 6-well plates (2 ml/well, 5 million PBMC). Incubations were carried out in the presence of 10 μg/ml E.coli lipopolysaccharide (LPS, 026:B6 serotype; Sigma) without adding any drug (control) or adding Triflusal or HTB (0.1-5 mM). Prior to incubations, cell viability controls were performed using the Trypan Blue exclusion assay. […]

[5] = Cell viability of 1321N1 cells (EZ4U); conditions: human, 1321N1 cells (astrocytoma), read-out: Percentage of cell viability
Experimental: as §1, §2, §3

NF-κB = assay: Activation of NF-κB induced by LPS in human PBMC (EMSA); conditions: human PBMCs, HTB 1-3 mM, 1 hour, then LPS 10 μg/ml 10 minutes
Experimental: Mononuclear cells (PBMC) were obtained from blood of healthy donors from the Hospital de Sant Pau (Barcelona) who had not taken any antiinflammatory drug during a period of not less than 2 weeks before blood extraction. Starting from a volume of about 80 ml of heparinized human blood (10 U/ml), this was diluted (1:1) with PBS (pH 7.4; Dulbecco) without calcium, magnesium nor sodium bicarbonate.
15 ml of Ficoll solution (d=1.077 at 20° C.; Biochrom KG) were placed in 50-ml Falcon tubes. To this solution a volume of about 25 ml per tube of the blood previously diluted with PBS was carefully added and the tubes were then centrifuged at 1,200 g for 20 minutes. Mononuclear cells concentrate on a whitish interphase between the plasma and the Ficoll solution. This interphase was collected with a Pasteur pipette and was diluted 1:1 with PBS. It was then centrifuged at 300 g for 10 min. The resulting pellet was resuspended in 50 ml PBS and was again centrifuged at 200 g for 10 min, in order to remove platelet contamination. […]
Prior to the various treatments, cell viability was determined by the Trypan Blue exclusion assay. […]
After incubation, PBMCs were washed twice with PBS and the degree of activation (binding to DNA) of the transcription factor NF-κB was determined using the EMSA assay, described in detail in Example 1.

O=C(O)c1ccc(C(F)(F)F)cc1O [HTB, 2-hydroxy-4-trifluoromethylbenzoic acid]
viability at 0 h, 1 mM ([1]; 1 mM HTB, 0 hours): 100%
viability at 2 h, 1 mM ([1]; 1 mM HTB, 2 hours): 100%
viability at 5 h, 1 mM ([1]; 1 mM HTB, 5 hours): 98.8%
viability at 24 h, 1 mM ([1]; 1 mM HTB, 24 hours): 74.4%
viability at 48 h, 1 mM ([1]; 1 mM HTB, 48 hours): 39.6%
viability at 72 h, 1 mM ([1]; 1 mM HTB, 72 hours): 4.8%
viability at 0 h, 3 mM ([1]; 3 mM HTB, 0 hours): 100%
viability at 2 h, 3 mM ([1]; 3 mM HTB, 2 hours): 96.1%
viability at 5 h, 3 mM ([1]; 3 mM HTB, 5 hours): 92.6%
viability at 24 h, 3 mM ([1]; 3 mM HTB, 24 hours): 13.9%
viability at 48 h, 3 mM ([1]; 3 mM HTB, 48 hours): 7.5%
viability at 0 h, 1 mM ([2]; 1 mM HTB, 0 hours): 100%
viability at 2 h, 1 mM ([2]; 1 mM HTB, 2 hours): 100%
viability at 5 h, 1 mM ([2]; 1 mM HTB, 5 hours): 76.8%
viability at 24 h, 1 mM ([2]; 1 mM HTB, 24 hours): 11.3%
viability at 48 h, 1 mM ([2]; 1 mM HTB, 48 hours): 3.6%
viability at 72 h, 1 mM ([2]; 1 mM HTB, 72 hours): 1.6%
viability at 0 h, 3 mM ([2]; 3 mM HTB, 0 hours): 100%
viability at 2 h, 3 mM ([2]; 3 mM HTB, 2 hours): 100%
viability at 5 h, 3 mM ([2]; 3 mM HTB, 5 hours): 62.6%
viability at 24 h, 3 mM ([2]; 3 mM HTB, 24 hours): 6.2%
viability at 48 h, 3 mM ([2]; 3 mM HTB, 48 hours): 5.4%
viability at 0 h, 1 mM ([3]; 1 mM HTB, 0 hours): 100%
viability at 2 h, 1 mM ([3]; 1 mM HTB, 2 hours): 100%
viability at 5 h, 1 mM ([3]; 1 mM HTB, 5 hours): 87.2%
viability at 24 h, 1 mM ([3]; 1 mM HTB, 24 hours): 64.8%
viability at 48 h, 1 mM ([3]; 1 mM HTB, 48 hours): 37.4%
viability at 72 h, 1 mM ([3]; 1 mM HTB, 72 hours): 7.6%
viability at 0 h, 3 mM ([3]; 3 mM HTB, 0 hours): 100%
viability at 2 h, 3 mM ([3]; 3 mM HTB, 2 hours): 94.5%
viability at 5 h, 3 mM ([3]; 3 mM HTB, 5 hours): 69.2%
viability at 24 h, 3 mM ([3]; 3 mM HTB, 24 hours): 39.6%
viability at 48 h, 3 mM ([3]; 3 mM HTB, 48 hours): 14.3%
cell viability [4]: ≥ 95%
viability at 0 h, 1 mM ([5]; 1 mM HTB, 0 hours): 100%
viability at 2 h, 1 mM ([5]; 1 mM HTB, 2 hours): 99.7%
viability at 5 h, 1 mM ([5]; 1 mM HTB, 5 hours): 94.2%
viability at 24 h, 1 mM ([5]; 1 mM HTB, 24 hours): 87.5%
viability at 0 h, 3 mM ([5]; 3 mM HTB, 0 hours): 100%
viability at 2 h, 3 mM ([5]; 3 mM HTB, 2 hours): 85.3%
viability at 5 h, 3 mM ([5]; 3 mM HTB, 5 hours): 67.2%
viability at 24 h, 3 mM ([5]; 3 mM HTB, 24 hours): 62.2%
viability at 48 h, 3 mM ([5]; 3 mM HTB, 48 hours): 17.8%
inhibition of the activation of NF-κB induced by LPS (NF-κB): markedly inhibits

Source: patent US6509377B1, “Use of a 2-hydroxy-4-trifluoromethylbenzoic acid derivatives as inhibitors of the activation of the nuclear transcription factor NF-κB” (J. Uriach & Cia, S.A., priority 1999, dated 2003)
